# PubChem BioAssay AID1902 (Broad Institute, 2009)
# Active and inactive are the calls of the source.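 How the source made its calls: active means EC50 no more than a set limit of log units above the highest dose; inactive means the rest.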
# Target: S. pyogenes SKKanGAS, kanamycin survival, BacTiterGlo, 6 h
# Experiment: S. pyogenes SKKanGAS kanamycin growth inhibitors – SKKanGAS strain, luminescence, dose confirmation, streptokinase promoter inhibitor project, dose response (AID 1902);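 further: lower survival reflects blocked streptokinase promoter driving kanamycin resistance gene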
row,Compound,EC50
1,O=C(Nc1nnc(-c2ccc(Cl)cc2)o1)c1nc2ccccc2s1,0.178 µM
2,Cc1ccc(-c2nn(-c3ccccc3)cc2/C=N/O)cc1,6.28 µM
3,O=C(Nc1nnc(-c2ccc3c(c2)CCCC3)o1)c1c(F)cccc1F,0.612 µM
4,Cc1cccc(C)c1Nc1c(-c2ccccn2)nc2ccccn12,6.67 µM
5,Cc1ccc(CN2CN(S(=O)(=O)c3cccs3)c3nc4ccccc4nc32)cc1,7.74 µM
6,CCCc1ccc(-c2cc(C(=O)N/N=C/c3ccc([N+](=O)[O-])o3)c3ccccc3n2)cc1,1.74 µM
7,COc1ccccc1/C=N\Nc1cc(C)nc(-n2nc(C)cc2C)n1,6.26 µM
8,O=C(c1cccs1)N1N=C(c2ccccc2)CC1c1ccccc1 (centres undefined),6.41 µM
9,FC(F)(F)c1nc(N2CCN(c3ccccc3)CC2)nc2c1CCCCC2,2.77 µM
10,Cn1c(=O)c(C(=O)NNC(=O)c2ccccc2Br)c(O)c2ccccc21,7.51 µM
11,O=Nc1c(-c2c(O)[nH]c3cc(Br)ccc23)[nH]c2ccccc12,2.95 µM
12,O=C1C=C(Nc2ccccc2O)c2ccccc2C1=O,3.08 µM
13,COCCn1c(SCc2nc3sc(C(=O)OC)c(C)c3c(=O)[nH]2)nc2ccccc21,3.54 µM
14,Cc1n[nH]c(C)c1CCOc1ccc(C(C)C)cc1,11.2 µM
15,COc1cnc(-c2ccccn2)nc1Oc1ccc(Cl)c2ccccc12,0.142 µM
16,O=C(N/N=C\c1c(O)ccc2ccccc12)c1cncc(Br)c1,1.31 µM
17,C/C(=N\NC(=S)NCc1ccccc1)c1cccc(Br)c1,5.44 µM
18,C=C1c2cccc(O)c2C(O)=C2C(=O)[C@]3(O)C(O)=C(C(N)=O)C(=O)[C@@H](N(C)C)[C@@H]3[C@@H](O)[C@H]12,0.093 µM
19,CCN(CC)CCN(C(=O)CCS(=O)(=O)c1ccccc1)c1nc2cc(C)cc(C)c2s1,> 15 µM (inactive)
20,CCC(C)c1ccc(C2C3=C(Nc4nc(N)[nH]c(=O)c42)c2ccccc2C3=O)cc1 (centres undefined),3.71 µM
21,COc1ccc2cc3c(N)nn(C(=O)C4CCC(C(C)(C)C)CC4)c3nc2c1 (centres undefined),1.95 µM
22,CCOC(=O)c1c(-c2ccc(OC)cc2)csc1/N=C/C1=C(O)CCCC1=O,14.5 µM
23,CCCc1ccc(-c2cc(N)n[nH]2)cc1,4.89 µM
24,CC(C)C[C@H](NC(=O)c1nc[nH]c1C(=O)N1CCc2ccccc2C1)C(=O)OCc1ccccc1,9.87 µM
25,CCC(=O)NC(=S)Nc1ccc(NC(=S)NC(=O)c2ccccc2)cc1,0.805 µM
26,Cc1nc(NS(=O)(=O)c2ccc(Cl)s2)c2c3c(sc2n1)CCCC3,3.98 µM
27,CCC(C)c1ccc(C(C)NC(=S)NC2CCCCC2)cc1 (centres undefined),9.12 µM

row,Compound,EC50
1,COc1ccc(Cn2c(SCc3cc(C)ccc3C)nc3cc(OC)c(OC)cc3c2=N)cc1,2.73 µM
2,Cc1nn(-c2ccccc2)c(C)c1/C=N/Nc1nc2ccccc2[nH]1,9.71 µM
3,CCN1/C(=C/C=C/c2oc3ccc(-c4ccccc4)cc3[n+]2CC)Oc2ccc(-c3ccccc3)cc21,2.07 µM
4,Cc1cc(C)n(-c2nc(SCC(=O)O)c3c4c(sc3n2)COC(C)(C)C4)n1,4.31 µM
5,N#Cc1c(-c2c(Cl)cccc2Cl)noc1/C=C/Nc1ccc(C(=O)O)cc1,4.6 µM
6,O=C1C2=C(NC(=S)NC2c2ccc(Cl)cc2)NC(c2ccc(Cl)cc2)N1c1ccc(Cl)cc1 (centres undefined),1.93 µM
7,CCc1ccc(-c2cc(C)no2)cc1S(=O)(=O)Nc1cccc(CN2CCCC2)c1,> 15 µM (inactive)
8,C=CCn1c(Oc2ccc(C(=O)OC)cc2)nc2c1c(=O)n(C)c(=O)n2C,7.96 µM
9,Clc1ccc(CO/N=C(\Cn2ccnc2)c2ccc(Cl)cc2Cl)c(Cl)c1,1.95 µM
10,COCCn1c(SCC(=O)Nc2ccc(F)cc2)nc2c([nH]c3ccccc32)c1=O,> 15 µM (inactive)
11,O=C(O)c1ccc(N/N=C/c2ccc(-c3cc(Cl)ccc3Cl)o2)cc1,2.48 µM
12,O=C(N/N=C/c1c(O)n(C2CCCCC2)c(=S)[nH]c1=O)c1ccccc1,0.659 µM
13,Cc1cc(C)c(OCC(=O)Nc2ccccc2N2CCCCC2)c(C)c1,4.38 µM
14,CCOC(=O)C1=C(C)N=c2s/c(=C/c3ccc(OCC(=O)O)c(OC)c3)c(=O)n2C1c1ccc(Cl)cc1 (centres undefined),5 µM
15,CCOc1ccc(-c2csc(/C(C#N)=C\c3ccc(O)c([N+](=O)[O-])c3)n2)cc1,1.99 µM
16,CC(CNC(=S)Nc1cc(F)cc(F)c1)CSc1ccc(Cl)cc1 (centres undefined),8.56 µM
17,CN1CCN(c2c(F)cc3c(=O)c(C(=O)O)cn4c3c2OCN4C)CC1,3.29 µM
18,CC(C)(C)c1cc(-c2csc(Nc3ccccc3)[n+]2Cc2ccc(C(=O)O)cc2)cc(C(C)(C)C)c1O,2.15 µM
19,CCCCCCCCCCCC1=C(O)C(=O)C=C(O)C1=O,1.67 µM
20,CCC(C(=O)N1CCC(N2CCCCC2)CC1)n1nc(C)c2sc3ccccc3c2c1=O (centres undefined),> 15 µM (inactive)
21,Cc1c(Cl)cnn1CC(=O)NC1C(=O)N2C(C(=O)O)=C(CSc3nnnn3C)CSC12 (centres undefined),< 0.06 µM
22,O=C(Cc1ccc([N+](=O)[O-])cc1)N/N=C/c1ccc([N+](=O)[O-])o1,9.86 µM
23,NC(=O)c1ccc(NC(=O)COC(=O)c2c3c(nc4ccccc24)/C(=C\c2ccc4c(c2)OCO4)CCC3)cc1,5.31 µM
24,CC1CCc2c(sc3nc(C4CC4)nc(N4CCN(C(=O)c5ccco5)CC4)c23)C1 (centres undefined),3.84 µM
25,C=C(C)C1Cc2c(C)nn(-c3cccc4ccccc34)c2C1 (centres undefined),5.89 µM
26,Cc1cccc(/C=C2\Sc3ccc(C(=O)N4CCC(C)CC4)cc3N(C)C2=O)c1,2.69 µM
27,Cc1nc(-c2ccc(S(=O)(=O)Nc3ccc(Br)cc3Cl)s2)cs1,5.14 µM
